Test results reported in publication PMC5391474, “Investigation of the Role of Protein Kinase D in Human Rhinovirus Replication” (Journal of Virology, 2017).

Legend:
Assay in all cases: biochemical
Set-up in all cases: in vitro kinase selectivity panel, protein and lipid kinases, single concentration, ATP at Km
Conditions in all cases: ATP at Km
[1] = biological target: T1, PKD (PKD1) (Homo sapiens, UniProt Q15139)
T1 construct: gene PRKD1
Method in brief: (§1)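 Single-point screen against a protein and lipid kinase panel: inhibitor at 1 μM. ATP concentration for every kinase equivalent to its Km.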

[2] = biological target: Flt4(h) (Homo sapiens, UniProt P35916)
Method in brief: as §1

[3] = biological target: T2, CaMKIV(h) (Homo sapiens, UniProt Q16566)
T2 construct: gene CAMK4
Method in brief: as §1

[4] = biological target: EGFR(h) (Homo sapiens, UniProt P00533)
EGFR(h), sequence (P00533 whole entry): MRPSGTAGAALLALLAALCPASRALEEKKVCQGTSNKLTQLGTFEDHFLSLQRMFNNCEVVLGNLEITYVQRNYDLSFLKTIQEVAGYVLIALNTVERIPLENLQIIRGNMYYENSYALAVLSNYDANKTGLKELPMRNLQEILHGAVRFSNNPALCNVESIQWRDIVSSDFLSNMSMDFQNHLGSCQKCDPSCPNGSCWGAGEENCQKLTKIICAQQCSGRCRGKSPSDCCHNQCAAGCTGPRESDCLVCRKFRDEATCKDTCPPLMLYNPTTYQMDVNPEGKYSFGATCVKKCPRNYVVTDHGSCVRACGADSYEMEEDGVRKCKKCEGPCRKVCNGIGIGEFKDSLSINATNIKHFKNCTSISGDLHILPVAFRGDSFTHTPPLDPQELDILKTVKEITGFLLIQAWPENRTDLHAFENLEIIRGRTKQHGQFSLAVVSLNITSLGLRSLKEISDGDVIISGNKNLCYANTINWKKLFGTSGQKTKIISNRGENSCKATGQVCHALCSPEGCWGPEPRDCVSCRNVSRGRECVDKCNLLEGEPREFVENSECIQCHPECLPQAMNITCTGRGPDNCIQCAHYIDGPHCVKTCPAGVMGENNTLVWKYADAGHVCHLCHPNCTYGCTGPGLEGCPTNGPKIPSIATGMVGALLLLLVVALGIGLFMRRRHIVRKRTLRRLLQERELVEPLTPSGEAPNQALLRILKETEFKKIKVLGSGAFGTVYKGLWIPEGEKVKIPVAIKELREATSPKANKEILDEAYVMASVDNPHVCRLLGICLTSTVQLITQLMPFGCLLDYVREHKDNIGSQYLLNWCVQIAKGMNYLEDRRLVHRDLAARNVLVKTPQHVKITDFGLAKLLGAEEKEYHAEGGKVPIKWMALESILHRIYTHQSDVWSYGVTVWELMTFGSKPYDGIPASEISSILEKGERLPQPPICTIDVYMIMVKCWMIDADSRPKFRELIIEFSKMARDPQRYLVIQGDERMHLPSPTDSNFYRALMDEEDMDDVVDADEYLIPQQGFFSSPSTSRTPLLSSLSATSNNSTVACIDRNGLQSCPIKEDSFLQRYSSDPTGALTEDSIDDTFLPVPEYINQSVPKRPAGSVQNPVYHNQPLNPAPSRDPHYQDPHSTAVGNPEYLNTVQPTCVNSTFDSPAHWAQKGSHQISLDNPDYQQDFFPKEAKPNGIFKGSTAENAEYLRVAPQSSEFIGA
Method in brief: as §1

[5] = biological target: CDK2/cyclinA(h) (Homo sapiens, UniProt P24941)
Method in brief: as §1

[6] = biological target: T3, Ron(h) (Homo sapiens, UniProt Q04912)
T3 construct: gene MST1R
Method in brief: as §1

[7] = biological target: T4, CK1γ1(h) (Homo sapiens, UniProt Q9HCP0)
T4 construct: gene CSNK1G1
T4 sequence (Q9HCP0 whole entry): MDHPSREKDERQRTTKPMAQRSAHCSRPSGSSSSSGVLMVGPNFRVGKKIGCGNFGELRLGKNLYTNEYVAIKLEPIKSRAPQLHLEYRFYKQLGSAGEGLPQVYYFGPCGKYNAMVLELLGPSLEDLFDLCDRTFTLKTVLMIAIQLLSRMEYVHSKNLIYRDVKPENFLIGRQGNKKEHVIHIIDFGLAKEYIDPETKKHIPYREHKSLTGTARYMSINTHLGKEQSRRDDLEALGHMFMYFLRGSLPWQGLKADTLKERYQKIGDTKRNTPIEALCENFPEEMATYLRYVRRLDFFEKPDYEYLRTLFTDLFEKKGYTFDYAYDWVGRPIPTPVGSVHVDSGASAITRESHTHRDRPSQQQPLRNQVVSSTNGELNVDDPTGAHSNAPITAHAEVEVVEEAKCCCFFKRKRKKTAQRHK
Method in brief: as §1

[8] = biological target: PIK3CG (Homo sapiens, UniProt P48736)
Method in brief: as §1

[9] = biological target: T5, cSRC(h) (Homo sapiens, UniProt P12931)
T5 construct: gene SRC
T5 sequence (P12931 whole entry): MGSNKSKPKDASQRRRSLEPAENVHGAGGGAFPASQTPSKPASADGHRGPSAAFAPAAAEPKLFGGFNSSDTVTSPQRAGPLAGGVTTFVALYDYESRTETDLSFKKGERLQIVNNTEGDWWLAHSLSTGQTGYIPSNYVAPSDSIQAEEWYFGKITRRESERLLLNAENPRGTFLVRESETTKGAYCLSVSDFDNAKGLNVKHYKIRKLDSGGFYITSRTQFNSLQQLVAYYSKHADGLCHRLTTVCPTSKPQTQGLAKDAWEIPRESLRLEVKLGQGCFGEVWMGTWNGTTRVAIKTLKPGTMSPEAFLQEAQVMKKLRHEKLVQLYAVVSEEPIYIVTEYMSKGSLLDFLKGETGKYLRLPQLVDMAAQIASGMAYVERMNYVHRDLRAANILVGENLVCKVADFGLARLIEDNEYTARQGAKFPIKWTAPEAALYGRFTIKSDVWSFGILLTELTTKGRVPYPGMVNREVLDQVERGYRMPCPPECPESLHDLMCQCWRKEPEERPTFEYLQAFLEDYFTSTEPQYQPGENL
Method in brief: as §1

[10] = biological target: T6, ZIPK(h) (Homo sapiens, UniProt O43293)
T6 construct: gene DAPK3
Method in brief: as §1

[11] = biological target: T7, BRK(h) (Homo sapiens, UniProt Q13882)
T7 construct: gene PTK6
T7 sequence (Q13882 whole entry): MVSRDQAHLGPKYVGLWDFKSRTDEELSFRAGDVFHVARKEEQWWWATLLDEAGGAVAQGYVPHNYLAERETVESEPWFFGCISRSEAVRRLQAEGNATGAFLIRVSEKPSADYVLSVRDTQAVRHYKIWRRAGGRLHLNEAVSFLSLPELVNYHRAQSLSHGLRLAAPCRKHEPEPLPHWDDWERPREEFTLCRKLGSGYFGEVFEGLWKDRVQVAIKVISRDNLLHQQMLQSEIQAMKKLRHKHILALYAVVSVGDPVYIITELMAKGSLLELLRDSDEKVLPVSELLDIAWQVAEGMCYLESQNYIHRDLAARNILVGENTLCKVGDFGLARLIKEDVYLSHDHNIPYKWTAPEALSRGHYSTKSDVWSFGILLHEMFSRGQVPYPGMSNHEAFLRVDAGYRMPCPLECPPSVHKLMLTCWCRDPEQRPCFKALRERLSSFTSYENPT
Method in brief: as §1

[12] = biological target: T8, LKB1(h) (Homo sapiens, UniProt Q15831)
T8 construct: gene STK11
Method in brief: as §1

[13] = biological target: T9, MST3(h) (Homo sapiens, UniProt Q9Y6E0)
T9 construct: gene STK24
Method in brief: as §1

[14] = biological target: T10, PDK1(h) (Homo sapiens, UniProt O15530)
T10 construct: gene PDPK1
T10 sequence (O15530 whole entry): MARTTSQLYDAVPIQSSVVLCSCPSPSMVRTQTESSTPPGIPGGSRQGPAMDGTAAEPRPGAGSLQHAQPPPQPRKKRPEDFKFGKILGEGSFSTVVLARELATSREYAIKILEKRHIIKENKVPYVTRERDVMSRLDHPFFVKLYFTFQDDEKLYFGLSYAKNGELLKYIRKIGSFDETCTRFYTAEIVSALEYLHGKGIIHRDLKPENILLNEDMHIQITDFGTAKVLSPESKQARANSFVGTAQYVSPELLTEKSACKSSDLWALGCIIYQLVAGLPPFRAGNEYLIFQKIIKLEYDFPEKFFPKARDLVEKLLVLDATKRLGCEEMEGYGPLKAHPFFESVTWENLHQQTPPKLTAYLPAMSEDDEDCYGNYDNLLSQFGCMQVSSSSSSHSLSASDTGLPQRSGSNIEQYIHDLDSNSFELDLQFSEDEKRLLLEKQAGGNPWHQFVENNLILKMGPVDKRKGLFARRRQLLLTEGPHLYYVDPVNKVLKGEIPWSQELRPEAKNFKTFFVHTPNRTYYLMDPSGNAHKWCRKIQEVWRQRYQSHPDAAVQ
Method in brief: as §1

[15] = biological target: FGFR3(h) (Homo sapiens, UniProt P22607)
FGFR3(h), sequence (P22607 whole entry): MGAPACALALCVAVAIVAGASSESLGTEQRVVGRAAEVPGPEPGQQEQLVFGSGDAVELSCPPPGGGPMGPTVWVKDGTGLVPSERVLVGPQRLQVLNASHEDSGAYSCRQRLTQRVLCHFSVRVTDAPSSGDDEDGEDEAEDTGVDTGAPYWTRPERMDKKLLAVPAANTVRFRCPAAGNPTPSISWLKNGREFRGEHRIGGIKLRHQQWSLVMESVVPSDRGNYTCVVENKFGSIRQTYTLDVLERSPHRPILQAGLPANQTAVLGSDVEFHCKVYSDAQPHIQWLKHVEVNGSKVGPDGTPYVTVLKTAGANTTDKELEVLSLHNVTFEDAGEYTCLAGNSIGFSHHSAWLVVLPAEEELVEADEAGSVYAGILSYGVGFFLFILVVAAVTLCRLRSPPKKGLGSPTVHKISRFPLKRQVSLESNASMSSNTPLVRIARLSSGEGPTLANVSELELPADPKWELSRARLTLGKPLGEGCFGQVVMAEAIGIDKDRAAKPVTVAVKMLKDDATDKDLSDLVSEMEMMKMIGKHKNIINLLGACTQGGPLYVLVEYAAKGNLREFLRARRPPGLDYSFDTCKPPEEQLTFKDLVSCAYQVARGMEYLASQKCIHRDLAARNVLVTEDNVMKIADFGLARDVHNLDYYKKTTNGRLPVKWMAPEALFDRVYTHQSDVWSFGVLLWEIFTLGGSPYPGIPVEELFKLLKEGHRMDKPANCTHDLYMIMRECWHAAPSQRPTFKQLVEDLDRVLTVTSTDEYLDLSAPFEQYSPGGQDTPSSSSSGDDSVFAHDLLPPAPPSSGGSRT
Method in brief: as §1

[16] = biological target: T11, ROCK-II(h) (Homo sapiens, UniProt O75116)
T11 construct: gene ROCK2
Method in brief: as §1

[17] = biological target: CHKA (Homo sapiens, UniProt P35790)
Method in brief: as §1

[18] = biological target: T12, Mer(h) (Homo sapiens, UniProt Q12866)
T12 construct: gene MERTK
T12 sequence (Q12866 whole entry): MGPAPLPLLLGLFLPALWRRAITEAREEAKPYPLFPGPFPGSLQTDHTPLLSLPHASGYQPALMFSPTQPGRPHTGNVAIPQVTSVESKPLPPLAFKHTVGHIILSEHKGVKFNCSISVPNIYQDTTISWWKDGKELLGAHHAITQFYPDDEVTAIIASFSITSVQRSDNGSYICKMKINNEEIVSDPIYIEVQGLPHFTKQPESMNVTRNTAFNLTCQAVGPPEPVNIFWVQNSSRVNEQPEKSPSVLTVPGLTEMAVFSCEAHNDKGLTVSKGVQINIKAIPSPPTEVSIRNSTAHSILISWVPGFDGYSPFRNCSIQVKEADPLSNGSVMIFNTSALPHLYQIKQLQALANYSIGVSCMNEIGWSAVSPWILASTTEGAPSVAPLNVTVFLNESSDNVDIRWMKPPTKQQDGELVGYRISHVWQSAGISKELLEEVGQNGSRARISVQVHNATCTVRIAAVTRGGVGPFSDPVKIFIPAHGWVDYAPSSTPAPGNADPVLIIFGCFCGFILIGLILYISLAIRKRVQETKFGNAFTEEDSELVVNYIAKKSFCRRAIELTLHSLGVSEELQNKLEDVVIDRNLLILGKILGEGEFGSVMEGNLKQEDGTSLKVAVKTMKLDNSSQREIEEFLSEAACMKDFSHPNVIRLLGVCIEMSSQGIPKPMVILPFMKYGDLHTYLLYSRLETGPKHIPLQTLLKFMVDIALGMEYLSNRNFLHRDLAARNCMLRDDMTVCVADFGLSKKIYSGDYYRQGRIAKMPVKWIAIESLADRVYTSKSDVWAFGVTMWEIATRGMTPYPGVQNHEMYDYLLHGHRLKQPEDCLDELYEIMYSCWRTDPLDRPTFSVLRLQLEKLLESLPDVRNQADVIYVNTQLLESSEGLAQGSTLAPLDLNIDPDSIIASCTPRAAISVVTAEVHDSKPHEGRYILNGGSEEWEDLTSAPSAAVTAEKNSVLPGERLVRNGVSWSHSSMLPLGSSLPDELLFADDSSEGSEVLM
Method in brief: as §1

CC[C@@H](N)CNc1ccnc(-c2cc(-c3cnn(C)c3)ccc2O)n1 [CRT0066101]
inhibition at 1 µM [1]: 98% | inhibition at 1 µM [2]: 22% | inhibition at 1 µM [3]: 26% | inhibition at 1 µM [4]: -6% | inhibition at 1 µM [5]: 53% | inhibition at 1 µM [6]: -8% | inhibition at 1 µM [7]: -5% | inhibition at 1 µM [8]: 29% | inhibition at 1 µM [9]: 3% | inhibition at 1 µM [10]: 7% | inhibition at 1 µM [11]: 17% | inhibition at 1 µM [12]: -13% | inhibition at 1 µM [13]: -6% | inhibition at 1 µM [14]: -17% | inhibition at 1 µM [15]: -2% | inhibition at 1 µM [16]: 28% | inhibition at 1 µM [17]: 1% | inhibition at 1 µM [18]: 66%
